Results from ChEMBL document CHEMBL5338826, “Design and Synthesis of Inhibitors of the E3 Ligase SMAD Specific E3 Ubiquitin Protein Ligase 1 as a Treatment for Lung Remodeling in Pulmonary Arterial Hypertension” (J Med Chem, 2023).
In brackets after ≈: the same amount, converted by molar mass. Activity calls are given as the source filed them. The rule behind the calls is not given here.

What was measured:
[1] = molecular target: T1, E3 ubiquitin-protein ligase SMURF1 (Homo sapiens, UniProt Q9HCE7); assay: Stabilization of SMURF1 (unknown origin) assessed as decrease in auto-ubiquitination by measuring increase in protein level by cell-based assay
[2] = Equilibrium solubility of the compound at pH 6.8; assay type: physicochemical; settings: buffer
[3] = Metabolic stability in rat liver microsomes assessed as half life; assay type: ADME, Microsome
[4] = molecular target: T1, E3 ubiquitin-protein ligase SMURF1; assay: Inhibition of SMURF1 (unknown origin) assessed as self-ubiquitination by TR-FRET/biochemical assay
[5] = Cmax in rat at 3 mg/kg, po; assay type: ADME, organism-based; parameters: dose 3 mg/kg, route po; settings: in vivo
Rattus norvegicus [6] = assay: Anti-remodeling efficacy in hypoxia/Sugen 5416-induced pulmonary arterial hypertension rat model assessed as muscularized vessels in the pulmonary vasculature at 10 mg/kg measured till end of the study relative to control; assay type: functional
[7] = Volume of distribution at steady state in rat at 3 mg/kg, po and 1 mg/kg, iv; assay type: ADME, organism-based; settings: in vivo
[8] = AUClast in rat at 3 mg/kg, po; assay type: ADME, organism-based; settings: in vivo
[9] = Plasma protein binding in rat; assay type: ADME, cell-free; settings: read-out: PPB
[10] = molecular target: E3 ubiquitin-protein ligase SMURF2 (Homo sapiens, UniProt Q9HAU4); assay: Inhibition of SMURF2 (unknown origin) assessed as self-ubiquitination by TR-FRET/biochemical assay
[11] = Oral bioavailability in rat at 3 mg/kg; assay type: ADME, organism-based; settings: in vivo
Rattus norvegicus [12] = assay: Anti-remodeling efficacy in hypoxia/Sugen 5416-induced pulmonary arterial hypertension rat model assessed as muscularized vessels in the pulmonary vasculature at 10 mg/kg measured after 14 days relative to control; assay type: functional; settings: time 14 day
[13] = Half life in rat at 3 mg/kg, po and 1 mg/kg, iv; assay type: ADME, organism-based; settings: in vivo
Rattus norvegicus [14] = species: Rattus norvegicus; assay: Anti-remodeling efficacy in hypoxia/Sugen 5416-induced pulmonary arterial hypertension rat model assessed as muscularized vessels in the pulmonary vasculature measured after 14 days relative to control; assay type: functional; settings: time 14 day
Rattus norvegicus [15] = species: Rattus norvegicus; assay: Anti-remodeling efficacy in hypoxia/Sugen 5416-induced pulmonary arterial hypertension rat model assessed as blocked of progression of phenotype of muscularization in the pulmonary vasculature measured after 14 days relative to control; assay type: functional, organism-based; settings: time 14.0 day
Rattus norvegicus [16] = species: Rattus norvegicus; assay: Anti-remodeling efficacy in hypoxia/Sugen 5416-induced pulmonary arterial hypertension rat model assessed as reversal of vessel muscularization in the pulmonary vasculature measured after 14 days relative to control; assay type: functional, organism-based; settings: time 14.0 day
Rattus norvegicus [17] = assay: Anti-remodeling efficacy in hypoxia/Sugen 5416-induced pulmonary arterial hypertension rat model assessed as reversal of vessel muscularization in the pulmonary vasculature at 10 mg/kg measured after 14 days relative to control; assay type: functional, organism-based; settings: time 14.0 day
Rattus norvegicus [18] = assay: Anti-remodeling efficacy in hypoxia/Sugen 5416-induced pulmonary arterial hypertension rat model assessed as reversal of vessel muscularization in the pulmonary vasculature at 3 mg/kg measured after 14 days relative to control; assay type: functional, organism-based; settings: time 14.0 day
Rattus norvegicus [19] = assay: Anti-remodeling efficacy in hypoxia/Sugen 5416-induced pulmonary arterial hypertension rat model assessed as blocked of progression of phenotype of muscularization in the pulmonary vasculature at 3 mg/kg measured after 14 days relative to control; assay type: functional, organism-based; settings: time 14.0 day
Rattus norvegicus [20] = assay: Anti-remodeling efficacy in hypoxia/Sugen 5416-induced pulmonary arterial hypertension rat model assessed as blocked of progression of phenotype of muscularization in the pulmonary vasculature at 10 mg/kg measured after 14 days relative to control; assay type: functional, organism-based; settings: time 14.0 day

T1 sequence (Q9HCE7 whole entry): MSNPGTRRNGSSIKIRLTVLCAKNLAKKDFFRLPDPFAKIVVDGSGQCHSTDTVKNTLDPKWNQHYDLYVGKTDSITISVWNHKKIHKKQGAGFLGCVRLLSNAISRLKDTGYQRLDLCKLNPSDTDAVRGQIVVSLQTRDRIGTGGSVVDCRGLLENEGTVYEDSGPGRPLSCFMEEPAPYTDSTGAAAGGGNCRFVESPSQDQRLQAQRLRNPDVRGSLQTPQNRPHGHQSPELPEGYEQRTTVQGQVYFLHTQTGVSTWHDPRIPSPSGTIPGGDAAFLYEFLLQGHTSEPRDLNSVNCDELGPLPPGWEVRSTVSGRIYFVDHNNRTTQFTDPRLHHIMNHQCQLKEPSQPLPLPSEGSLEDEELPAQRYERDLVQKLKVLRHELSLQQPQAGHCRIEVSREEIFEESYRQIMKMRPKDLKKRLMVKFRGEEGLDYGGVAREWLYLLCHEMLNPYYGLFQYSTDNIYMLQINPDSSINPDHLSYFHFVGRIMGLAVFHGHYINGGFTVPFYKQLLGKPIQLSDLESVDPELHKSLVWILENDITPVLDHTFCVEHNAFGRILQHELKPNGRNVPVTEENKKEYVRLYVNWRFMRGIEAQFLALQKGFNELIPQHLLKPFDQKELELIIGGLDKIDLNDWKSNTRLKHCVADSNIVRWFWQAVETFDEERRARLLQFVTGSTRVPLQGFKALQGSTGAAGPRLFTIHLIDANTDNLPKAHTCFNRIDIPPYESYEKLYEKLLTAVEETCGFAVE
E3 ubiquitin-protein ligase SMURF2, sequence (Q9HAU4 whole entry): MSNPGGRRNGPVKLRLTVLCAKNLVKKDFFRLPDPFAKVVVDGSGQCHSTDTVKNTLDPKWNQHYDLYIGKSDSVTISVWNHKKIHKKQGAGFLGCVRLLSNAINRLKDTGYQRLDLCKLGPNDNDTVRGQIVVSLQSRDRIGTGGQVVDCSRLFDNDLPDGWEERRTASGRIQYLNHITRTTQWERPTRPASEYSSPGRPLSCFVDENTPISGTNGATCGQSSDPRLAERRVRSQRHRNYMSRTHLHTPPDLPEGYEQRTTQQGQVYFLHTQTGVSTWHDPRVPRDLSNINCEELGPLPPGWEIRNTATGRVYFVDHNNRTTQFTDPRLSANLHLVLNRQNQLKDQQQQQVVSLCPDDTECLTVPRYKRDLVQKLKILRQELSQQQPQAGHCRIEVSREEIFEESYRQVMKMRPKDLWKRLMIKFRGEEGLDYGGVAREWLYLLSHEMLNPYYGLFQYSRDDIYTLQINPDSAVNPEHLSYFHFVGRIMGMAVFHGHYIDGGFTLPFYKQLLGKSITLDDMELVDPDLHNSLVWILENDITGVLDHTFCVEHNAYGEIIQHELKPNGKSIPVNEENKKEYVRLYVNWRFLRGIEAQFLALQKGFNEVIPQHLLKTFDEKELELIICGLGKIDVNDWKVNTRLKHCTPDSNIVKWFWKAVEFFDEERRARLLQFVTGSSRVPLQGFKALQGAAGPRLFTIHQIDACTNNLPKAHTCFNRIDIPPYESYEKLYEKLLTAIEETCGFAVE

| SMILES | EC50 [1] [nM] | solubility thermodynamic [2] [µM] | half-life [3] [min] | IC50 [4] [nM] | other results |
| --- | --- | --- | --- | --- | --- |
| COc1ccc(-c2onc(C(=O)Nc3c(C)n(C)n(-c4ccccc4F)c3=O)c2C)c(C)c1 | 250 | 280 (≈ 126 µg/mL) | 45.2 | 180 | – |
| COc1ccc(-c2cc(C(=O)Nc3c(C)n(C)n(-c4ccccc4)c3=O)no2)cc1 | > 22000 | – | – | > 10000 | – |
| Cc1c(C(=O)Nc2c(C)n(C)n(C3CCCCC3)c2=O)nnn1-c1ccc(C2CC2)cc1Cl | 316 | 190 (≈ 89.1 µg/mL) | – | – | Cmax [5]: 2010 nM; Activity (Rattus norvegicus [6]): 18%; Vdss [7]: 2.3 L/kg; AUClast [8]: 7.38 µM·h; fraction unbound [9]: < 0.01; IC50 [10]: > 20000 nM; bioavailability [11]: 82%; Activity (Rattus norvegicus [12]): 10%; half-life [13]: 474 min |
| Cc1c(C(=O)Nc2c(C)n(C)n(-c3ccccc3F)c2=O)noc1-c1ccc(Cl)cc1F | 1100 | 530 (≈ 243 µg/mL) | 30.7 | 700 | – |
| COc1ccc2c(c1)CCCc1c(C(=O)Nc3c(C)n(C)n(-c4ccccc4F)c3=O)noc1-2 | 600 | – | – | 200 | – |
| Cc1c(C(=O)O)noc1-c1ccc(C2CC2)cc1Cl | 40 | 24 (≈ 6.66 µg/mL) | – | – | Cmax [5]: 541 nM; Vdss [7]: 1.7 L/kg; AUClast [8]: 2.78 µM·h; fraction unbound [9]: < 0.01; IC50 [10]: 2900 nM; bioavailability [11]: 67%; half-life [13]: 96 min |
| NC(=O)c1ccc(-c2nc(-c3ccccn3)c(-c3ccc4c(c3)OCO4)[nH]2)cc1 [SB-431542] | – | – | – | – | Activity (Rattus norvegicus [14]): 15%; Activity (Rattus norvegicus [15]): Active; Activity (Rattus norvegicus [16]): inactive |
| COc1ccc2c(c1)CCCc1c(C(=O)Nc3c(C)n(C)n(-c4ccccc4)c3=O)noc1-2 | 1100 | – | – | 400 | – |
| Cc1c(C(=O)Nc2c(C)n(C)n(-c3ccccc3F)c2=O)noc1-c1ccc(Cl)cc1Cl | 410 | 13 (≈ 6.18 µg/mL) | 16.7 | 29 | – |
| Cc1c(C(=O)Nc2c(C)n(C)n(-c3ccccc3F)c2=O)noc1-c1ccc(Cl)cc1 | 580 | 140 (≈ 61.7 µg/mL) | 70.5 | 180 | – |
| Cc1c(C(=O)Nc2c(C)n(C)n(-c3ccccc3F)c2=O)noc1-c1ccc(C2CC2)cc1Cl | 230 | – | 18.9 | 11 | Cmax [5]: 1080 nM; Activity (Rattus norvegicus [17]): Active; Activity (Rattus norvegicus [18]): Active; Activity (Rattus norvegicus [19]): Active; Vdss [7]: 1.5 L/kg; AUClast [8]: 11.6 µM·h; fraction unbound [9]: < 0.01; Activity (Rattus norvegicus [20]): Active; bioavailability [11]: 97%; half-life [13]: 114 min |
| COc1cc2ccc3c(C(=O)Nc4c(C)n(C)n(-c5ccccc5)c4=O)noc3c2cc1OC | – | – | – | > 10000 | – |
| COc1ccc(-c2onc(C(=O)Nc3c(C)n(C)n(-c4ccccc4F)c3=O)c2C)cc1 | 1600 | 22 (≈ 9.6 µg/mL) | 15.8 | 1000 | – |
| Cc1c(C(=O)Nc2c(C)n(C)n(-c3ccccc3F)c2=O)noc1-c1cc(Cl)ccc1Cl | 2500 | – | – | 280 | – |
| COc1ccc2c(c1)CCc1c(C(=O)Nc3c(C)n(C)n(-c4ccccc4)c3=O)noc1-2 | 4660 | – | – | 3000 | IC50 [10]: > 10000 nM |
